According to ChEMBL document CHEMBL3045753, “In silico ligand-based pharmacophore model generation for the identification of novel Pneumocystis carinii DHFR inhibitors” (Med Chem Res, 2013):

Biological target: T1, Dihydrofolate reductase (Pneumocystis carinii, UniProt P16184)
T1 sequence (P16184 whole entry): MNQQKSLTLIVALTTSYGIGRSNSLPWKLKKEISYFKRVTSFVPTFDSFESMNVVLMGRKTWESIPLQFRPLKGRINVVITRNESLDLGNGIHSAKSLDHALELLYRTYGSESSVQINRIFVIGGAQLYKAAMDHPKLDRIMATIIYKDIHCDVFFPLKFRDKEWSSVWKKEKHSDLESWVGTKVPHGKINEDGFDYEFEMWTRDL
Test: Inhibition of Pneumocystis carinii DHFR

Row | SMILES | IC50 [nM]
1 | N=C(N)c1ccc(N2CCN(c3ccc(-c4nc5ccccc5[nH]4)cc3)CC2)cc1 | 170
2 | CCc1nc(N)nc(N)c1-c1ccc(Cl)c(N(C)Cc2ccccc2)c1 | 1070
3 | COc1cc(C)c2c(OC3CCCCC3C(F)(F)F)c(OC)cc(NC(C)CCCN)c2n1 (stereo not given) | 711
4 | COc1cc(Cc2cnc(N)nc2N)cc(C#CCCC(=O)O)c1OC | 1000
5 | CCc1nc2nc(N)nc(N)c2nc1CC | 620
